Reference: patent publication US12415939B2, “Nano-adhesive and surface primer compound and use thereof” (The Regents of the University of California, priority 2015, dated 2025)
Several values for one entry are separate records, joined by “and”; a condition that tells them apart may be missing. Identical values can stand only once.

How the values were obtained:
[1] = Cyclic voltammetry of catechol oxidation; type: physicochemical; settings: for E1/2: DI water, scan rate 1 mV s−1, Ag/AgCl reference
Description: (§1) Cyclic voltammetry was performed on a Versastat 3 potentiostat from Ametek Co. These analyses were carried out using a three-electrode cell: a Pt wire as the counter electrode, an Ag/AgCl reference electrode, and a Carbon paste electrode (CPE) served as the working electrode. CPE is the best choice for adhesive materials because of its ability to be completely polished before each experiment. Catechol auto-oxidation was avoided by performing all electrochemical experiments with degassed deionized water in a glove bag under argon. Scan rate 1 mV s-1 was used for all experiments. CV of 5 mM synthesized polymers and 5 mM methyl catechol, a simple catechol-containing compound, were compared. Oxidation of Catechol carrying molecules occurred at more positive potentials than methyl catechol, indicating the unique structure of the dispersions provide shielding effects that stabilized catechol groups (FIG. 3).
Cyclic voltammetry was performed on a Versastat 3 potentiostat from Ametek Co. (Berwyn, PA). These analyses were carried out using a three-electrode cell: a Pt wire as the counter electrode, an Ag/AgCl reference electrode, and a Carbon paste electrode (CPE) served as the working electrode. CPE is the best choice for adhesive materials because of its ability to be completely polished before each experiment.
as §1, with “s^−1” for “s-1”, “molecules” for “polymers”, “groups. Z-Cat-Ben with an oxidation peak at 840 mV is more resistant to oxidation than the other species” for “groups”, “42).” for “3).”

[2] = Surface forces apparatus (SFA) cohesion/adhesion between thin films on mica; type: physicochemical
[3] = Shear bonding strength of the lap joint; settings: cross-sectional area 2.54 cm×2.54 cm, n=4
Description: The catecholic zwitterions were inspired by interfacial proteins (mfp-3 and -5) that function as adhesive primers, but not as bulk adhesives. To determine whether Z-Cat-C10 is limited to surface binding or develops measurable bulk cohesion (thickness […]), bulk rupture tests were done using a peeling-by-bending test to better mimic the role that interfacial proteins play in resisting plaque detachment as well as lap-shear bonding test. Lap joints were prepared by gluing two steel plates (SS304) immersed in water using the lower dense coacervate (˜10 μl) (FIGS. 24A-24H). The lap joint (cross-sectional area=2.54 cm×2.54 cm) prepared in artificial seawater or periodate solution, respectively, held a load up to 3 N underwater. […] After 12 h ambient drying, the joint prepared in 1 M periodate solution held much higher load, 11 N: Standard three point bending peel strength of the lap joint (cross-sectional area=2.54 cm×1.27 cm) was measured under ambient dry conditions after drying 12 h. […] Shear bonding strength of the lap joint (cross-sectional area=2.54 cm×2.54 cm) was also measured, 1.1 MPa (standard deviation=0.3, n=4)—similar to Dopa-functionalized polypeptide prepared under ambient dry conditions, 0.9 MPa. […]

[4] = Z-Cat-C10 0.1 mg ml−1 sample in DI water

C[N+](C)(CCCc1ccccc1)CCOP(=O)([O-])OCCCc1ccc(O)c(O)c1 [Z-Cat-Ben]
stability in water to oxidation (shelf life) ([1]; 5 mM in DI water): stable (shelf life) in water to oxidation
oxidation peak ([1]; 5 mM in degassed DI water, 1 mV s−1): 840 mV
E1/2 [1]: 0.418 V
effect of sodium periodate treatment on cohesion ([2]; 500 pmoles periodate): same before and after
cohesion energy Wc between SAMs ([2]; 5 mM in DI water, mica): 19±3 mJ/m^2 and 18.7±2.8 mJ/m^2
effect of aqueous Fe3+ on cohesion ([2]; CFe3+=10 M as printed): not affected
hard-wall thickness ([2]; SAMs from 5 mM, mica): ~1 nm
cohesion energy Wc before and after periodate and iron treatments ([2]; SAMs on mica): ~20 mJ/m^2
molecular density on mica ([2]; from cohesion energy and π-π interaction): 1.07×10^18 molecules per m^2

CN(C)CCOP(=O)(O)OCCCc1ccc(O)c(O)c1 [Z-Cat-C10]
E1/2 [1]: ~0.25 V
oxidation peak [1, 4]: 530 mV
reduction peak [1, 4]: 316 mV
adhesion on mica relative to mfp-5 and mfp-amyloid fusion protein [2]: 2-3 fold
increase in adhesion after asymmetric oxidation ([2]; after tc=60 min contact time): 50%
decrease in cohesion after symmetric periodate oxidation ([2]; contact times ≤tc=10 min, rebounded after tc=60 min): 50%
adhesion energy Wad after periodate oxidation ([2]; cross-linked films on mica, tc=12 h compressive contact): ~50 mJ m^−2
thin film thickness ([2]; post-oxidation, crosslinked films): 2-4 nm
cohesion (or adhesion) energy Wc ([2]; symmetric films adsorbed from 5 mM, DI water, mica): 10.1±2.3 mJ m^−2
work of adhesion before periodate ([2]; uncross-linked films on mica): ~20 mJ m^−2
shear bonding strength of the lap joint [3]: 1.1 MPa
